# In patent US9458181B2, “Cathepsin cysteine protease inhibitors” (Merck Sharp & Dohme Corp., priority 2013, dated 2016):
# Columns and labels:
# [1] = target: human cathepsin K (UniProt P43236); test: Cathepsin K Assay (hrbCat K); type: biochemical; conditions: human cathepsin K 0.4 nM, Z-Leu-Arg-AMC 8 μM, pH 5.5, 15 min preincubation; read-out: hrbCat K IP
# Procedure: Cathepsin K Assay (hrbCat K)
# (§1) Serial dilutions (⅓) from 500 μM down to 0.025 μM of test compounds were prepared in dimethyl sulfoxide (DMSO). Then 0.5 μL of DMSO from each dilution were added to 18.75 μL of assay buffer (MES, 50 mM (pH 5.5); EDTA, 2.5 mM; DTT, 2.5 mM and 10% DMSO) containing human cathepsin K (0.4 nM) in assay buffer solution. The assay solutions were mixed for 5-10 seconds on a shaker plate and incubated for 15 minutes at room temperature. Z-Leu-Arg-AMC (8 μM) in 6.25 μL of assay buffer was added to the assay solutions. Hydrolysis of the coumarin leaving group (AMC) was followed by spectrofluorometry (Exλ=360 nm; Emλ=460 nm) for 30 minutes. Percent of inhibition were calculated by fitting experimental values to standard mathematical model for dose response curve.
# [2] = target: T1, human cathepsin F (Homo sapiens, UniProt Q9UBX1); test: Cathepsin F assay (hCat F); type: biochemical; conditions: human cathepsin F 10 nM, Z-Phe-Arg-AMC 8 μM, pH 5.5, 15 min preincubation; read-out: hCat F IP
# T1 sequence (Q9UBX1 271-484): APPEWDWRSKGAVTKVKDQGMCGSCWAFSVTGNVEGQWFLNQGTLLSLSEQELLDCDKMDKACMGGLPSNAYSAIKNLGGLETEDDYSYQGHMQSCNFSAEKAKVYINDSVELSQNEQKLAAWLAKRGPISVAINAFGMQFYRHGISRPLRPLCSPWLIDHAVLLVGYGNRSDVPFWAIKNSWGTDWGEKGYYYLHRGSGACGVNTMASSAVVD
# Procedure: Cathepsin F assay (hCat F)
# as §1, with “F (10” for “K (0.4”, “Z-Phe-Arg-AMC” for “Z-Leu-Arg-AMC”, “(Exp, =360” for “(Exλ=360”, “EmX=460” for “Emλ=460”, “20” for “30”
SMILES,IC50 [1] [nM],IC50 [2] [nM]
"N#CC1(NC(=O)[C@@H]2CCCC[C@H]2c2oc(-c3ccc(F)cc3)nc2-c2ccc(N3CC4CC3CS4(=O)=O)cc2)CC1 (mixture of isomers) [Example 87, (1R,2R)-N-(1-cyanocyclopropyl)-2-(4-(4-((1R,4R and 1S,4S)-2,2-dioxido-2-thia-5-azabicyclo[2.2.1]heptan-5-yl)phenyl)-2-(4-fluorophenyl)oxazol-5-yl)cyclohexanecarboxamide]",4.09,1220
"N#CC1(NC(=O)[C@@H]2CCCC[C@H]2c2oc(C3CCC(C(F)(F)F)CC3)nc2-c2ccc(N3CCS(=O)(=O)CC3)cc2)CC1 (mixture of isomers) [Example 111, (1R,2R)-N-(1-cyanocyclopropyl)-2-(4-(4-(1,1-dioxidothiomorpholino)phenyl)-2-((1R,4R and 1S,4S)-4-(trifluoromethyl)cyclohexyl)oxazol-5-yl)cyclohexanecarboxamide]",1.83,1060
"N#CC1(NC(=O)[C@@H]2CCCC[C@H]2c2oc(C3CCC(F)(F)C3)nc2-c2ccc(N3CCS(=O)(=O)CC3)cc2)CC1 (mixture of isomers) [Example 114, (1R,2R)-N-(1-cyanocyclopropyl)-2-(2-((R and S)-3,3-difluorocyclopentyl)-4-(4-(1,1-dioxidothiomorpholino)phenyl)oxazol-5-yl)cyclohexanecarboxamide]",1.7,1520
"N#CC1(NC(=O)[C@@H]2CC(C(F)F)CC[C@H]2c2oc(-c3ccc(F)cc3)nc2-c2ccc(N3CCS(=O)(=O)CC3)cc2)CC1 (mixture of isomers) [Example 138, (1R,2R,5R and 1R,2R,5S)-N-(1-cyanocyclopropyl)-5-(difluoromethyl)-2-(4-(4-(1,1-dioxidothiomorpholino)phenyl)-2-(4-fluorophenyl)oxazol-5-yl)cyclohexanecarboxamide]",12.4,151
"N#CC1(NC(=O)[C@@H]2CC3CC3C[C@H]2c2oc(-c3ccc(F)cn3)nc2-c2ccc(N3CCS(=O)(=O)CC3)cc2)CC1 (single isomer, unassigned) [Example 8, (1S,3R,4R,6R or 1R,3R,4R,6S)-N-(1-Cyanocyclopropyl)-4-(4-(4-(1,1-dioxidothiomorpholino)phenyl)-2-(5-fluoropyridin-2-yl)oxazol-5-yl)bicyclo[4.1.0]heptane-3-carboxamidc]",9.56,1620
"N#CC1(NC(=O)[C@@H]2CC3CC3C[C@H]2c2oc(-c3ccc(F)cn3)nc2-c2ccc(N3CCS(=O)(=O)CC3)cc2)CC1 (single isomer, unassigned) [Example 9, (1R,3R,4R,6S or 1S,3R,4R,6R)-N-(1-cyanocyclopropyl)-4-(4-(4-(1,1-dioxidothiomorpholino)phenyl)-2-(5-fluoropyridin-2-yl)oxazol-5-yl)bicyclo[4.1.0]heptane-3-carboxamide]",3.54,1180
"CC(C#N)NC(=O)[C@@H]1CCCC[C@H]1c1oc(-c2ccc(F)cc2F)nc1-c1ccc(N2CCS(=O)(=O)CC2)cc1 (single isomer, unassigned) [Example 45, (1R,2R)-N-((R or S)-1-cyanoethyl)-2-(2-(2,4-difluorophenyl)-4-(4-(1,1-dioxidothiomorpholino)phenyl)oxazol-5-yl)cyclohexanecarboxamide]",32.7,–
"CC(C#N)NC(=O)[C@@H]1CCCC[C@H]1c1oc(-c2ccc(F)cc2)nc1-c1ccc(N2CCS(=O)(=O)CC2)cc1 (single isomer, unassigned) [Example 121, (1R,2R)-N-((R or S)-1-cyanoethyl)-2-(4-(4-(1,1-dioxidothiomorpholino)phenyl)-2-(4-fluorophenyl)oxazol-5-yl)cyclohexanecarboxamide]",24.1,≥ 10000
"N#CC1(NC(=O)[C@@H]2CCCC[C@H]2c2oc(-c3ccc(F)cc3)nc2-c2ccc(N3CCOCC3)cc2)CC1 [Example 17, (1R,2R)-N-(1-cyanocyclopropyl)-2-(2-(4-fluorophenyl)-4-(4-morpholinophenyl)oxazol-5-yl)cyclohexanecarboxamide]",9.36,–
"N#CC1(NC(=O)[C@@H]2CCCC[C@H]2c2oc(N3CCOCC3)nc2-c2ccc(N3CCS(=O)(=O)CC3)cc2)CC1 [Example 47, (1R,2R)-N-(1-cyanocyclopropyl)-2-(4-(4-(1,1-dioxidothiomorpholino)phenyl)-2-morpholinooxazol-5-yl)cyclohexanecarboxamide]",3.11,–
"N#CC1(NC(=O)[C@@H]2CCCC[C@H]2c2oc(-c3ccc(S(=O)(=O)C(F)(F)F)cc3)nc2-c2ccc(N3CCS(=O)(=O)CC3)cc2)CC1 [Example 104, (1R,2R)-N-(1-cyanocyclopropyl)-2-(4-(4-(1,1-dioxidothiomorpholino)phenyl)-2-(4-((trifluoromethyl)sulfonyl)phenyl)oxazol-5-yl)cyclohexanecarboxamide]",2.4,–
"N#CC1(NC(=O)[C@@H]2CCCC[C@H]2c2oc(-c3ccc(F)cc3F)nc2-c2ccc(C(=O)N3CCOCC3)cc2)CC1 [Example 120, (1R,2R)-N-(1-cyanocyclopropyl)-2-(2-(2,4-difluorophenyl)-4-(4-(morpholine-4-carbonyl)phenyl)oxazol-5-yl)cyclohexanecarboxamide]",14.5,–

# Further compounds by falling IC50 [1], results first:
IC50 [1] [nM],IC50 [2] [nM],SMILES
1.7,1500,"N#CC1(NC(=O)[C@@H]2CCCC[C@H]2c2oc(C3CC4CCC(C3)C4(F)F)nc2-c2ccc(N3CCS(=O)(=O)CC3)cc2)CC1 (mixture of isomers) [Example 109, (1R,2R)-N-(1-cyanocyclopropyl)-2-(2-((1R,3R,5S and 1R,3S,5S)-8,8-difluorobicyclo[3.2.1]octan-3-yl)-4-(4-(1,1-dioxidothiomorpholino)phenyl)oxazol-5-yl)cyclohexanecarboxamide]"
1.46,2240,"COC1CC(c2nc(-c3ccc(N4CCS(=O)(=O)CC4)cc3)c([C@@H]3CCCC[C@H]3C(=O)NC3(C#N)CC3)o2)C1 (mixture of isomers) [Example 117, (1R,2R)-N-(1-cyanocyclopropyl)-2-(4-(4-(1,1-dioxidothiomorpholino)phenyl)-2-((1R,3R and 1S,3S)-3-methoxycyclobutyl)oxazol-5-yl)cyclohexanecarboxamide]"
1.38,1210,"COC(c1ccccc1)(c1nc(-c2ccc(N3CCS(=O)(=O)CC3)cc2)c([C@@H]2CCCC[C@H]2C(=O)NC2(C#N)CC2)o1)C(F)(F)F (mixture of isomers) [Example 116, (1R,2R)-N-(1-cyanocyclopropyl)-2-(4-(4-(1,1-dioxidothiomorpholino)phenyl)-2-((R and S)-2,2,2-trifluoro-1-methoxy-1-phenylethyl)oxazol-5-yl)cyclohexanecarboxamide]"
1.3,53,"N#CC(NC(=O)[C@@H]1CCCC[C@H]1c1oc(-c2ccc(F)cc2)nc1-c1ccc(N2CCS(=O)(=O)CC2)cc1)C(F)(F)F (mixture of isomers) [Example 149, (1R,2R)-N-((S and R)-1-cyano-2,2,2-trifluoroethyl)-2-(4-(4-(1,1-dioxidothiomorpholino)phenyl)-2-(4-fluorophenyl)oxazol-5-yl)cyclohexanecarboxamide]"
1.1,–,"N#CC1(NC(=O)[C@@H]2CCCC[C@H]2c2oc(-c3ccc(Cl)c(F)c3)nc2-c2ccc(N3CCS(=O)(=O)CC3)cc2)CC1 [Example 76, (1R,2R)-2-(2-(4-chloro-3-fluorophenyl)-4-(4-(1,1-dioxidothiomorpholino)phenyl)oxazol-5-yl)-N-(1-cyanocyclopropyl) cyclohexanecarboxamide]"
0.85,767,"N#CC1(NC(=O)[C@@H]2CCCC[C@H]2c2oc(C3CC4CC4C3)nc2-c2ccc(N3CCS(=O)(=O)CC3)cc2)CC1 (mixture of isomers) [Example 118, (1R,2R)-2-(2-((1R,3R,5S and 1R,3S,5S)-bicyclo[3.1.0]hexan-3-yl)-4-(4-(1,1-dioxidothiomorpholino)phenyl)oxazol-5-yl)-N-(1-cyanocyclopropyl) cyclohexanecarboxamide]"
0.66,230,"CC(C#N)NC(=O)[C@@H]1CCCC[C@H]1c1oc(-c2ccc(F)cc2F)nc1-c1ccc(N2CCS(=O)(=O)CC2)cc1 (single isomer, unassigned) [Example 46, (1R,2R)-N-((S or R)-1-cyanoethyl)-2-(2-(2,4-difluorophenyl)-4-(4-(1,1-dioxidothiomorpholino)phenyl)oxazol-5-yl)cyclohexanecarboxamide]"
